In patent US6528049B2, “Bisexual attractants, aggregants and arrestants for adults and larvae of codling moth and other species of lepidoptera” (Trece, Inc., priority 1999, dated 2003):

Key:
codling moth = assay: Trap capture with purified (2E,4E) and (2E,4Z) 2,4-decadienoic acid esters; assay type: in vivo, Cydia pomonella; settings: 1 mg dose/gray septum; four orchards; means of 21 trap checks
Experimental: In this study, test compounds were highly purified synthetic samples. The purities of the compounds are expressed as percentages. Individual traps were baited with 1 mg dose/gray septum; five replicate blocks in four orchards; means of 21 total trap checks.

male codling moth = assay: Pheromone preference paired-trap test: pheromone alone vs pheromone + HPV; assay type: in vivo, Cydia pomonella; settings: for % Change (Ph+HPV/Phxl00) in Male CM Capture / Impact of HPV Blend on Pheromone Attractancy to Male CM / Male CM Capture with Pheromone + HPV Blend: ♂♂/trap/night ± SEM: Table 9; for Male CM Capture with Pheromone + HPV Blend: ♂♂/trap/night ± SEM / Male CM Captured, HPV + Pheromone Trap: ± SEM / Male CM Captured, HPV + Pheromone Trap ± SEM: 10 mg/red septum; for % of pheromone-alone capture (line under HPV + Pheromone value) / Male CM Captured, HPV + Pheromone Trap: ± SEM / Male CM Captured, HPV + Pheromone Trap ± SEM / Average % Change in ♂♂ CM Capture: Table 8; for Average % Change in ♂♂ CM Capture: average of four orchards
Description: Interaction of synthetic apple and pear odor blends, described above in Table 2, and their effect on the attractancy of synthetic pheromone to codling moth was also studied. For that purpose, series of paired-traps containing pheromone alone or pheromone in combination with synthetic host plant volatile blends were placed in walnut orchards.
Interaction of individual synthetic host plant volatiles or blends on the attractiveness of synthetic male pheromone to male codling moth administered in paired traps with pheromone alone or with pheromone and attractant 10 mg/red septum was also studied.
Pheromone traps (sticky wing traps, Trécé, Inc.,) were hung as pairs: a pheromone only baited-trap vs. a pheromone+HPV blend-baited trap. The two traps of a test pair were attached in close competitive proximity (120 cm apart) on a common hanger bar (PVC pipe). The paired-trap bars were hung 5-6 meters high on the outer canopies of trees. A single pair-trap was hung per tree and different replicate test trees were separated by five rows in a matrix through the orchard. Each pheromone trap was baited with ½ of a commercial pheromone-impregnated rubber septum (Trécé, Inc.). Septa were sectioned by a razor blade. The HPV blends evaporated from their own separate impregnated rubber septa containing 10 mg diluted in hexane/septum).
Tests were conducted in a Harley English walnut orchard. Tests spanned the entire two year seasons April-October with traps checked, males sexed, counted and removed every 2-7 days. Significant effect on pheromone trap capture were judged by paired tests either T-test or a nonparametric test.

Row | Structure (SMILES) | FEMALE CM Captured: ♂♂/trap/night ± SEM (codling moth) | MALE CM Captured: ♂♂/trap/night ± SEM (codling moth) | Total CM Captured: CM/trap/night ± SEM (codling moth) [CM/trap/night] | % Change (Ph+HPV/Phxl00) in Male CM Capture (male codling moth) [%] | Impact of HPV Blend on Pheromone Attractancy to Male CM (male codling moth) | Male CM Capture with Pheromone + HPV Blend: ♂♂/trap/night ± SEM (male codling moth) | also measured
1 | CCCCC/C=C\C=C\C(=O)OCCCCCC [Hexyl (2E,4Z)-2,4-Decadienoate (91. 6%), Hexyl (2E,4Z)-2,4-Decadienoate] | 0.36 ± 0.18 ♀♀/trap/night | 0.21 ± 0.09 ♂♂/trap/night | 0.57 ± 0.22 | – | – | – | –
2 | CCCCC/C=C\C=C\C(=O)OCCCCCC [Hexyl (2E,4Z)-2,4-Decadienoate (100%), Hexyl (2E,4Z)-2,4-Decadienoate] | 0.02 ♀♀/trap/night | 0.01 ± 0.01 ♂♂/trap/night | 0.02 ± 0.02 | – | – | – | –
3 | CCCCC/C=C/C=C/C(=O)OC(C)C [Isopropyl (2E,4E)-2,4-Decadienoate] | 0.09 ± 0.04 ♀♀/trap/night | 0.05 ± 0.02 ♂♂/trap/night | 0.14 ± 0.05 | – | – | – | –
4 | CCCCC/C=C/C=C/C(=O)OC [Methyl (2E,4E)-2,4-Decadienoate] | 0.04 ± 0.03 ♀♀/trap/night | 0.01 ± 0.01 ♂♂/trap/night | 0.05 ± 0.03 | – | – | – | –
5 | C=CC(=C)CCC=C(C)C [Myrcene] | – | – | – | 84 | No Effect | 1.03 ± 0.26 ♂♂/trap/night | –
6 | C=C/C(C)=C/C/C=C(\C)CCC=C(C)C [alpha-Farnesene] | – | – | – | 86 | No Effect | 1.38 ± 0.39 ♂♂/trap/night | –
7 | CC1=CCC(C(C)C)=CC1 [gamma-Terpinene] | – | – | – | 93 | No Effect | 0.88 ± 0.28 ♂♂/trap/night | –
8 | Cc1ccc(C(C)C)cc1 [para-Cymene] | – | – | – | – | – | – | % of pheromone-alone capture (line under HPV + Pheromone value) (male codling moth; Orchard #1): 117%; Male CM Captured, HPV + Pheromone Trap: ± SEM (male codling moth; Orchard #1): 0.92 ± 0.20 ♂♂/trap/night; % of pheromone-alone capture (line under HPV + Pheromone value) (male codling moth; Orchard #2): 102%; Male CM Captured, HPV + Pheromone Trap ± SEM (male codling moth; Orchard #2): 1.39 ± 0.38 ♂♂/trap/night; % of pheromone-alone capture (line under HPV + Pheromone value) (male codling moth; Orchard #3): 108%; Male CM Captured, HPV + Pheromone Trap: ± SEM (male codling moth; Orchard #3): 4.76 ± 0.82 ♂♂/trap/night; % of pheromone-alone capture (line under HPV + Pheromone value) (male codling moth; Orchard #4): 136%; Male CM Captured, HPV + Pheromone Trap: ± SEM (male codling moth; Orchard #4): 4.27 ± 0.71 ♂♂/trap/night; Average % Change in ♂♂ CM Capture (male codling moth): 116%
9 | C=C1CCC2CC1C2(C)C (stereo not drawn) [β-Pinene] | – | – | – | – | – | – | % of pheromone-alone capture (line under HPV + Pheromone value) (male codling moth; Orchard #1): 61%; Male CM Captured, HPV + Pheromone Trap: ± SEM (male codling moth; Orchard #1): 0.75 ± 0.50 ♂♂/trap/night; % of pheromone-alone capture (line under HPV + Pheromone value) (male codling moth; Orchard #2): 63%; Male CM Captured, HPV + Pheromone Trap ± SEM (male codling moth; Orchard #2): 1.25 ± 0.29 ♂♂/trap/night; % of pheromone-alone capture (line under HPV + Pheromone value) (male codling moth; Orchard #3): 130%; Male CM Captured, HPV + Pheromone Trap: ± SEM (male codling moth; Orchard #3): 3.37 ± 0.53 ♂♂/trap/night; % of pheromone-alone capture (line under HPV + Pheromone value) (male codling moth; Orchard #4): 112%; Male CM Captured, HPV + Pheromone Trap: ± SEM (male codling moth; Orchard #4): 4.95 ± 0.76 ♂♂/trap/night; Average % Change in ♂♂ CM Capture (male codling moth): 92%
